Here are results for twelve compounds from patent publication US11834453B2, “Substituted pyrimido[5,4-d]pyrimidines as HER2 inhibitors” (Array BioPharma Inc., priority 2020, dated 2023).

Series [1] deals with EGFR wild type (EGFR WT) (Homo sapiens (Human), UniProt P00533). The series is described as follows: Cellular phosphorylation assay, EGF-stimulated EGFR phosphorylation in engineered NIH 3T3 cells, Phospho-EGFR DuoSet IC ELISA, Assay 5. It is filed as cell-based. Summed up:
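NIH 3T3 cells expressing EGFR WT (20,000/well, attached overnight) were exposed to serially diluted compound for 1 h at 37 °C, then stimulated with 100 ng/ml rEGF for 10 min. Phospho-EGFR in lysates measured by sandwich ELISA optical density; IC50 from curves.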

Series [2] deals with ErbB2 insYVMA (HER2-YVMA, SEQ ID NO: 2) (Homo sapiens, UniProt P04626, INS775YVMA/P1170A). The series is described as follows: biochemical. The settings on record: ErbB2 insYVMA enzyme assay.
The target in series [3] is MDR1 (P-gp) (Homo sapiens (Human), UniProt P08183). The series is described as follows: MDR1 transfected MDCKII canine Mdr1 knockout permeability/efflux, Assay 7. The following applies: dog, MDCK-MDR1.
Method: Both MDR1 transfected LLC-PK1 (Assay 6) and MDR1 transfected MDCKII canine Mdr1 knockout cells (Assay 7) were cultured and plated according to manufacturer's recommendations with the exception that the passage media for the MDR1 transfected LLC-PK1 cell line contained only 2% fetal bovine serum so as to extend passage time out to seven days.
Both positive and negative controls were used to assess functionality of P-gp or BCRP efflux in the assays. Stock solutions for assay controls and the test article were prepared in DMSO for final test concentration of 1 μM. Final organic concentration in the assay was 1%. All dosing solutions contained 10 μM lucifer yellow to monitor MDCKII cell monolayer integrity.
For the apical to basolateral determination (A to B), 75 μL of the test article in transport buffer were added to the apical side of the individual transwells and 250 μL of basolateral media, without compound or lucifer yellow, were added to each well. For the basolateral to apical determination (B to A), 250 μL of test article in transport buffer were added to each well and 75 μL transport buffer, without compound or lucifer yellow, were added to each transwell. All tests were performed in triplicate, and each compound was tested for both apical to basolateral and basolateral to apical transport. The plates were incubated for 2 hours on a Lab-Line Instruments Titer Orbital Shaker (VWR, West Chester, PA) at 50 rpm and 37° C. with 5% CO2. All culture plates were removed from the incubator, 50 μL of media were removed from the apical and basolateral portion of each well, and added to 150 μL of 1 μM labetalol in 2:1 acetonitrile (ACN): H2O, v/v.
The plates were read using a Molecular Devices (Sunnyvale, CA) Gemini Fluorometer to evaluate the lucifer yellow concentrations at excitation/emission wavelengths of 425/535 nm. These values were accepted when found to be below 2% for apical to basolateral and 5% basolateral to apical flux across the MDR1-transfected LLC-PK1 or BCRP-transfected MDCKII cell monolayers. The plates were sealed, and the contents of each well analyzed by LC MS/MS. The compound concentrations were determined from the ratio of the peak areas of the compound to the internal standard (labetalol) in comparison to the dosing solution.
A MDS Sciex API 4000 (Applied Biosystems, Foster City, CA) mass spectrometer was used for detection of the analytes in the ion spray positive mode. Analyte responses were measured by multiple reaction monitoring (“MRM”) of transitions unique to each compound (the protonated precursor ion and selected product ions for each test article and m/z 329 to m/z 162 for labetalol, the internal standard.
The total run time, including re-equilibration, for a single injection was 1.2 minutes. […] The total run time, including re-equilibration, for a single injection was 0.61 minutes.
An efflux ratio is calculated from the mean apical to basolateral (A-B) Papp data and basolateral to apical (B-A) Papp data: Efflux ratio=Papp(B−A)/Papp(A−B)
The target in series [4] is EGFR (Homo sapiens (Human), UniProt P00533). The series is described as follows: ErbB enzyme assay (CisBio HTRF KinEASE-TK), Assay 3. It is filed as biochemical. Summed up: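 Inhibition is measured as reduced peptide phosphorylation by HTRF KinEASE-TK at 1 mM ATP and 250 nM substrate, 30 min at 22 °C. Values are IC50s from a 4-parameter logistic fit.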
For series [5], the target named is ErbB2 WT (Homo sapiens (Human), UniProt P04626). The series is described as follows: ErbB enzyme assay (CisBio HTRF KinEASE-TK), Assay 2. The format is biochemical. Summed up:
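ErbB2 phosphorylates 250 nM biotin-TK substrate at 1 mM ATP in 25 mM HEPES pH 7.4, 10 mM MgCl2, 0.01% Triton X-100 and 2% DMSO, for 30 min at 22 °C. Product is detected by HTRF with Sa-XL665 and TK-Ab-Cryptate. Percent of control is set by DMSO-only wells and pre-quenched wells.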
A general note: TR-FRET usually uses a lanthanide donor and a delayed reading to cut background.

The target of series [6] is ErbB2 with Exon 20 YVMA insertion (HER2-YVMA) (Homo sapiens (Human), UniProt P04626, INS775YVMA). Description: Cellular phosphorylation assay, constitutive ErbB2 phosphorylation (Y1196) in engineered NIH 3T3 cells, Assay 4. It is filed as cell-based. Summed up: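 Engineered NIH 3T3 cells expressing HER2-YVMA treated with compounds 1 h at 37 °C, then formaldehyde-fixed and methanol-permeabilized. pErbB2 Y1196 detected by in-cell infrared immunofluorescence, normalized to GAPDH. IC50 from the normalized curves.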

Read-outs that look alike come from different tables or passages of the source.

ErbB2 WT, sequence (P04626 23-1255): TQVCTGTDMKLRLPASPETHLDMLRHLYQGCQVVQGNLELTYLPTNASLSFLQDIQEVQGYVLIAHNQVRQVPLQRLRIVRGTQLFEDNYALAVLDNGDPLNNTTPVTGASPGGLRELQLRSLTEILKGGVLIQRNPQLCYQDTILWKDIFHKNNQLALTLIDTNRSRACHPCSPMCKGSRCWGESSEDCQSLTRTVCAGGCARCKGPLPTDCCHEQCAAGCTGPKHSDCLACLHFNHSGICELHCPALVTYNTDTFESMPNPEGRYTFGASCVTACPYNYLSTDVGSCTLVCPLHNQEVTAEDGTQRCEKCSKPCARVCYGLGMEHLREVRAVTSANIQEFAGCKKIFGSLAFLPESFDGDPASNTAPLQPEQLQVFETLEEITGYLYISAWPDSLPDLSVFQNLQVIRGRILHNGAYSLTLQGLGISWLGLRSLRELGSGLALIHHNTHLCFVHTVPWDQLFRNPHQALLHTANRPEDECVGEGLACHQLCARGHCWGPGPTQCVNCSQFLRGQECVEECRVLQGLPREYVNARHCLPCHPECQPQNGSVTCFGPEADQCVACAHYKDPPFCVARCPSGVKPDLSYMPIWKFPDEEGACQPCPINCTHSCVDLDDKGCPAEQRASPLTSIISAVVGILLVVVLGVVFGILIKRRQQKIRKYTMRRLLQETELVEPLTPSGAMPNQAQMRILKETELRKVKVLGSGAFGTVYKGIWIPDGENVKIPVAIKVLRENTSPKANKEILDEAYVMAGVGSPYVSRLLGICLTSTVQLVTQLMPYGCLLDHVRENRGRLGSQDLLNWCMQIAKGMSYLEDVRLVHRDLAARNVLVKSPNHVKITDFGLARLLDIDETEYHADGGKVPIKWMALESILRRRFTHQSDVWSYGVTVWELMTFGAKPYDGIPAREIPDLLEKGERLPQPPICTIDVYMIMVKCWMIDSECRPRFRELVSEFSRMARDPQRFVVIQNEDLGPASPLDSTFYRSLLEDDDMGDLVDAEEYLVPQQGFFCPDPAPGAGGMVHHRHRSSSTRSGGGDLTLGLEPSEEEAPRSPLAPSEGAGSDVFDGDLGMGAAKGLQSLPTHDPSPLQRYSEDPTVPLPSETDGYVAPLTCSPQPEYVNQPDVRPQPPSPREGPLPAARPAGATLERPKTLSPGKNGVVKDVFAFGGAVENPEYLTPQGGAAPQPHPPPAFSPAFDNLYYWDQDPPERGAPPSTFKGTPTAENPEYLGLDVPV
EGFR wild type (EGFR WT), sequence (P00533 25-1210): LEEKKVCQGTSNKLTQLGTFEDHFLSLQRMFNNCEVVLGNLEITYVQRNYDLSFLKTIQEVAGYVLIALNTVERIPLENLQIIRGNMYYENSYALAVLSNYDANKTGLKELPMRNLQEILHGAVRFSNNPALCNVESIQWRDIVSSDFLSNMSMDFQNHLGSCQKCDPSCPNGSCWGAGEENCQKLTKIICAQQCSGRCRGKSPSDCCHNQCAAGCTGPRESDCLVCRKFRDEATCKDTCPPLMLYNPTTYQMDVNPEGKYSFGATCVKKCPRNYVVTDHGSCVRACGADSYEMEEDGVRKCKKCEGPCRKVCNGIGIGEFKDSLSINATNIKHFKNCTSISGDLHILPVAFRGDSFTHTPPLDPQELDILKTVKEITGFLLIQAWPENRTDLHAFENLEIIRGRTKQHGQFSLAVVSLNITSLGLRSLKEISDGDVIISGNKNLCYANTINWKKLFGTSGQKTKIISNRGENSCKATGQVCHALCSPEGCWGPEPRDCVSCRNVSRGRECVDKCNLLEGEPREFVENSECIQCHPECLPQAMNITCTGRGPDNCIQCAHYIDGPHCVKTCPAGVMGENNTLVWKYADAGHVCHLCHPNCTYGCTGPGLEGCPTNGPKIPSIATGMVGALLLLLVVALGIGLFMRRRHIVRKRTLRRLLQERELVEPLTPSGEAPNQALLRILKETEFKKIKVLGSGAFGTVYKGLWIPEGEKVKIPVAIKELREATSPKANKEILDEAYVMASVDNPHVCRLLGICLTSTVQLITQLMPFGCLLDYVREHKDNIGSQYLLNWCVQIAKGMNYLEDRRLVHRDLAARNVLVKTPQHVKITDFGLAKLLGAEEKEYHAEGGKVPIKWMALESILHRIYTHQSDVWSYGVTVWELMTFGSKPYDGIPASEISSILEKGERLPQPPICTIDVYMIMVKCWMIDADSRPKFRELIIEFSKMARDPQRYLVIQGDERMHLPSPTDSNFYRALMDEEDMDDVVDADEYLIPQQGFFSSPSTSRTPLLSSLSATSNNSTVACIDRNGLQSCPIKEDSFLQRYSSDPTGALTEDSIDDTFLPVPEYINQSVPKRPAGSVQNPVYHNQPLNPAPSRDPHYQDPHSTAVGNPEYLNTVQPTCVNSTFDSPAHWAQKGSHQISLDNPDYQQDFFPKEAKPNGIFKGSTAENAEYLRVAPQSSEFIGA
EGFR, sequence (P00533 25-1210): as above
MDR1 (P-gp), sequence (P08183 whole entry): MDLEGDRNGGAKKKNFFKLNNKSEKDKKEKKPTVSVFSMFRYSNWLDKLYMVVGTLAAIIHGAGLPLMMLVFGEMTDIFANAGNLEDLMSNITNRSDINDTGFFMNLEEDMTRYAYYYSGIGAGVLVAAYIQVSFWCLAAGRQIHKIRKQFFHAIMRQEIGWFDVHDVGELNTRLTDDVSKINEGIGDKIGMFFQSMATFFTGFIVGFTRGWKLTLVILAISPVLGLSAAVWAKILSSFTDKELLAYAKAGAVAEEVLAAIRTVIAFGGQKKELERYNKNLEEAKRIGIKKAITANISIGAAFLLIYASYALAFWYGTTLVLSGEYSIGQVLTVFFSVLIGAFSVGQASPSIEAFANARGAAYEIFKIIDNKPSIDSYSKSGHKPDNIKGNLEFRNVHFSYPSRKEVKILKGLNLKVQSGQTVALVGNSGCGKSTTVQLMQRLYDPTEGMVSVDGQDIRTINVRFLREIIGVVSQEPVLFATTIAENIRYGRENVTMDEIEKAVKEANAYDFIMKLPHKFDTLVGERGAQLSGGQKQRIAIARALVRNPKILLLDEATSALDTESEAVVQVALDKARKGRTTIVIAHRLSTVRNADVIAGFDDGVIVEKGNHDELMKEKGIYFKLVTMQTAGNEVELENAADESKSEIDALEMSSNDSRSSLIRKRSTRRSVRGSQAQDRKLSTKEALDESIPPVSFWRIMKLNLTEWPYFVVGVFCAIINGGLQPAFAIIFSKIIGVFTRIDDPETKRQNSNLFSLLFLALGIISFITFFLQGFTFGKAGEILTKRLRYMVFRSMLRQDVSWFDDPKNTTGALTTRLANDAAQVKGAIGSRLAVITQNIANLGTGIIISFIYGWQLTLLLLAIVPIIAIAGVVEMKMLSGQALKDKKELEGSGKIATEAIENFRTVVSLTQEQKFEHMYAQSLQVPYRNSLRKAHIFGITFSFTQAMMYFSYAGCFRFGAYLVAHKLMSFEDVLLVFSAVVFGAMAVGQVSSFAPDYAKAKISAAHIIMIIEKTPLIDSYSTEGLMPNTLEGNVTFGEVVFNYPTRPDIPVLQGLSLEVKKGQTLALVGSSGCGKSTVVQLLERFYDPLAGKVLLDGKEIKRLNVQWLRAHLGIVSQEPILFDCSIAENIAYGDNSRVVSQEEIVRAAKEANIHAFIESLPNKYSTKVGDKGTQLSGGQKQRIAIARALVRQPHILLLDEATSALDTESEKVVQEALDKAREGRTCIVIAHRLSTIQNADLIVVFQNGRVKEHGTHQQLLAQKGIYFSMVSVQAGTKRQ

In the case of `Cc1cc(Nc2ncnc3cnc(N4C[C@H]5CCS(=O)(=O)[C@H]5C4)nc23)ccc1Oc1ccc2c(c1)ncn2C` (racemic) [Example 92, rac-(3aR,6aR)-5-(8-((3-methyl-4-((1-methyl-1H-benzo[d]imidazol-5-yl)oxy)phenyl)amino)pyrimido[5,4-d]pyrimidin-2-yl)hexahydro-2H-thieno[2,3-c]pyrrole 1,1-dioxide], the IC50 (commonly the concentration that inhibits the measured activity by half) is not below 5000 nM in series [1]; 10.7 nM in series [2] (read-out: Assay 1 IC50); 8780 nM in series [4]; 18.9 nM in series [5]; 23.3 nM in series [6]. In addition, the efflux ratio (commonly a quotient of directional permeabilities that is used to spot active efflux) at 2 h, 1 μM in series [3] worked out at 3.8.
In the case of `CO[C@@H]1CN(c2ncc3ncnc(Nc4ccc(Oc5ccc6c(c5)ncn6C)c(C)c4)c3n2)C[C@H]1O` (racemic) [Example 107, ±(3R,4R)-4-methoxy-1-(8-((3-methyl-4-((1-methyl-1H-benzo[d]imidazol-5-yl)oxy)phenyl)amino)pyrimido[5,4-d]pyrimidin-2-yl)pyrrolidin-3-ol], the IC50 in series [1] was not below 5000 nM; in series [2] (read-out: Assay 1 IC50), 30.8 nM; in series [4], not below 10000 nM; in series [5], 15.5 nM; in series [6], 31.3 nM. Also, the efflux ratio at 2 h, 1 μM in series [3] was determined as 3.2.
With `Cc1cc(Nc2ncnc3cnc(N(C)[C@@H]4CNC[C@@H]4F)nc23)ccc1Oc1ccc2c(c1)ncn2C` [Example 94, N2-((3R,4S)-4-fluoropyrrolidin-3-yl)-N2-methyl-N8-(3-methyl-4-((1-methyl-1H-benzo[d]imidazol-5-yl)oxy)phenyl)pyrimido[5,4-d]pyrimidine-2,8-diamine], the IC50 in series [1] was not below 5000 nM; in series [2] (read-out: Assay 1 IC50), 21.3 nM; in series [4], 4360 nM; in series [5], 31.3 nM; in series [6] it was 20.3 nM. Moreover, the efflux ratio at 2 h, 1 μM in series [3] turned out to be 12.
`Cc1c(Oc2ccc3c(c2)ncn3C)ccc(Nc2ncnc3cnc(N4CC[C@](C)(O)C4)nc23)c1F` [Example 97, (S)-1-(8-((2-fluoro-3-methyl-4-((1-methyl-1H-benzo[d]imidazol-5-yl)oxy)phenyl)amino)pyrimido[5,4-d]pyrimidin-2-yl)-3-methylpyrrolidin-3-ol]: the 50% inhibitory concentration (IC50) was not below 5000 nM in series [1]; 14.2 nM in series [2] (read-out: Assay 1 IC50); not below 10000 nM in series [4]; 31 nM in series [5]; 47.5 nM in series [6]. The efflux ratio at 2 h, 1 μM in series [3] was found to be 2.
Take `CN(CCC(C)(C)O)c1ncc2ncnc(Nc3ccc(Oc4ccn5ncnc5c4)c(Cl)c3)c2n1` [Example 101, 4-((8-((4-([1,2,4]triazolo[1,5-a]pyridin-7-yloxy)-3-chlorophenyl)amino)pyrimido[5,4-d]pyrimidin-2-yl)(methyl)amino)-2-methylbutan-2-ol]: the IC50 in series [1] was not below 5000 nM; in series [2] (read-out: Assay 1 IC50) it was 15.4 nM; in series [4], not below 10000 nM; in series [5], 14.7 nM; in series [6] it was 8.2 nM. In addition, the efflux ratio at 2 h, 1 μM in series [3] was 1.5.
For the compound `Cn1cnc2cc(Oc3ccc(Nc4ncnc5cnc(N6CCC6)nc45)cc3Cl)ccc21.O=C(O)C(F)(F)F` [Example 148, 6-(azetidin-1-yl)-N-(3-chloro-4-((1-methyl-1H-benzo[d]imidazol-5-yl)oxy)phenyl)pyrimido[5,4-d]pyrimidin-4-amine 2,2,2-trifluoroacetate], the half-inhibitory concentration (IC50) in series [1] is not below 5000 nM; in series [2] (Assay 1 IC50 (nM)) it was 24.3 nM; in series [4] it was not below 10000 nM; in series [5], 34 nM; in series [6], 13 nM. The efflux ratio at 2 h, 1 μM in series [3] came out at 1.3.
Regarding `Cn1cnc2cc(Oc3ccc(Nc4ncnc5cnc(N6CC7C8CCC(O8)C7C6)nc45)cc3Cl)ccc21.O=C(O)C(F)(F)F` (centres unmarked) [Example 149, N-(3-chloro-4-((1-methyl-1H-benzo[d]imidazol-5-yl)oxy)phenyl)-6-(octahydro-2H-4,7-epoxyisoindol-2-yl)pyrimido[5,4-d]pyrimidin-4-amine], the IC50 in series [1] was not below 5000 nM; in series [2] (Assay 1 IC50 (nM)) it was 99 nM; in series [4] it was not below 10000 nM; in series [5], 102 nM; in series [6], 26.5 nM. The efflux ratio at 2 h, 1 μM in series [3] turned out to be 1.
Turning to `Cn1cnc2cc(Oc3ccc(Nc4ncnc5cnc(N6CCN7CCOC[C@H]7C6)nc45)cc3Cl)ccc21.O=C(O)C(F)(F)F.O=C(O)C(F)(F)F` [Example 150, (R)—N-(3-chloro-4-((1-methyl-1H-benzo[d]imidazol-5-yl)oxy)phenyl)-6-(hexahydropyrazino[2,1-c][1,4]oxazin-8(1H)-yl)pyrimido[5,4-d]pyrimidin-4-amine bis(2,2,2-trifluoroacetate)], the half-inhibitory concentration (IC50) in series [1] was not below 5000 nM; in series [2] (Assay 1 IC50 (nM)), 32 nM; in series [4] it was not below 10000 nM; in series [5], 22.3 nM; in series [6], 9.1 nM. Besides, the efflux ratio at 2 h, 1 μM in series [3] came to 2.2.
With `Cn1cnc2cc(Oc3ccc(Nc4ncnc5cnc(N6CCN7CCOC[C@@H]7C6)nc45)cc3Cl)ccc21.O=C(O)C(F)(F)F.O=C(O)C(F)(F)F` [Example 151, (S)—N-(3-chloro-4-((1-methyl-1H-benzo[d]imidazol-5-yl)oxy)phenyl)-6-(hexahydropyrazino[2,1-c][1,4]oxazin-8(1H)-yl)pyrimido[5,4-d]pyrimidin-4-amine bis(2,2,2-trifluoroacetate)], the concentration for half-maximal inhibition (IC50) in series [1] was not below 5000 nM; in series [2] (Assay 1 IC50 (nM)), 24.6 nM; in series [4], not below 10000 nM; in series [5] it was 61.4 nM; in series [6], 18.8 nM. Further, the efflux ratio at 2 h, 1 μM in series [3] is 1.2.
Consider `Cc1cc(Nc2ncnc3cnc(N4CC[C@H](F)[C@@H](O)C4)nc23)ccc1Oc1ccc2c(c1)ncn2C` [Example 162, (3S,4S)-4-fluoro-1-(8-((3-methyl-4-((1-methyl-1H-benzo[d]imidazol-5-yl)oxy)phenyl)amino)pyrimido[5,4-d]pyrimidin-2-yl)piperidin-3-ol], for which the half-maximal inhibitory concentration (IC50) in series [1] was not below 5000 nM; in series [2] (read-out: Assay 1 IC50), 19.4 nM; in series [4] it was 7360 nM; in series [5] it was 31.6 nM; in series [6], 36.4 nM. In addition, in series [3], the efflux ratio at 2 h, 1 μM amounted to 2.8.
In the case of `Cc1cc(Nc2ncnc3cnc(N(C)[C@H]4C[C@@](C)(O)C4)nc23)ccc1Oc1ccc2c(c1)ncn2C` [Example 165, (1s, 3s)-1-methyl-3-(methyl(8-((3-methyl-4-((1-methyl-1H-benzo[d]imidazol-5-yl)oxy)phenyl)amino)pyrimido[5,4-d]pyrimidin-2-yl)amino)cyclobutan-1-ol], the concentration for half-maximal inhibition (IC50) in series [1] was not below 5000 nM; in series [2] (read-out: Assay 1 IC50), 7.5 nM; in series [4], 216 nM; in series [5], 5.6 nM; in series [6], 11.4 nM. Moreover, in series [3], the efflux ratio at 2 h, 1 μM was found to be 2.1.
On to `Cc1cc(Nc2ncnc3cnc(N(C)C[C@H](C)O)nc23)ccc1Oc1ccc2c(c1)ncn2C` [Example 195, (S)-1-(methyl(8-((3-methyl-4-((1-methyl-1H-benzo[d]imidazol-5-yl)oxy)phenyl)amino)pyrimido[5,4-d]pyrimidin-2-yl)amino)propan-2-ol], for which the half-inhibitory concentration (IC50) is not below 5000 nM in series [1], 17.3 nM in series [2] (read-out: Assay 1 IC50), 7290 nM in series [4] and 10.1 nM in series [6]. The efflux ratio at 2 h, 1 μM in series [3] was determined as 4.6.
